Assay results: article PMC9653409, “Generative deep learning enables the discovery of a potent and selective RIPK1 inhibitor” (Nature Communications, 2022)

Assays:
Assay in all cases: Kinase inhibitory activity profiling of RI-962@10 µM (406 kinases, Eurofins)
Format in all cases: biochemical
[1] = biological target: panel of human kinases (kinase named in endpoint) (Homo sapiens, UniProt P51817); details: 10 µM; read-out: Activity (%), PrKX(h)
Description: (§1) In vitro kinase activity assays were conducted through the Kinase Profiling Services provided by Eurofins (Eurofins, France). The protocol for the RIPK1 assay is briefly described as follows (Protocols for other kinases are very similar and can be found in http://www.eurofins.com/pharmadiscovery). RIPK1 kinase was incubated with the test compound in assay buffer containing 8 mM MOPS (pH 7.0), 0.2 mM EDTA, 250 μM […], 10 mM magnesium acetate, and 10 μM [γ-33P]-ATP for 15 min at room temperature. The reaction was initiated by the addition of the Mg/ATP mixture. After incubation for 40 min at room temperature, and the reaction was stopped by the addition of 3% phosphoric acid. A 10 μL portion of the reaction mixture was then spotted onto a P30 filter mat and washed four times for 4 min in 0.425% phosphoric acid and once in methanol prior to drying and scintillation counting.

[2] = biological target: panel of human kinases (kinase named in endpoint) (Homo sapiens, UniProt P51617); details: 10 µM; read-out: Activity (%), IRAK1(h)
Description: as §1

[3] = biological target: panel of human kinases (kinase named in endpoint) (Homo sapiens, UniProt O00238); details: 10 µM; read-out: Activity (%), ALK6(h)
Sequence of panel of human kinases (kinase named in endpoint) (Homo sapiens, UniProt O00238) (O00238 14-502): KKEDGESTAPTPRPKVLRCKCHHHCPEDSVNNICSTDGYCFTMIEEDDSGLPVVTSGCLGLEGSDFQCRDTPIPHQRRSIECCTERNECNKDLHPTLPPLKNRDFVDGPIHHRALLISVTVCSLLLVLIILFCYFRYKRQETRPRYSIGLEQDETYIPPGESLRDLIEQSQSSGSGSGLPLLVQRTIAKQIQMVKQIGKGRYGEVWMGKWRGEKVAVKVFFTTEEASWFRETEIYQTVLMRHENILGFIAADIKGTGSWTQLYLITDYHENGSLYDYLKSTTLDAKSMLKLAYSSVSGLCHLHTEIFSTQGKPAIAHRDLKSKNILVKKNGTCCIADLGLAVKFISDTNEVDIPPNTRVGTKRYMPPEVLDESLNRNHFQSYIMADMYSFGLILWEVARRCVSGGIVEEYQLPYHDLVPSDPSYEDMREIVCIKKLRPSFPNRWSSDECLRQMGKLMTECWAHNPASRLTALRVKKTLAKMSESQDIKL
Description: as §1

[4] = biological target: panel of human kinases (kinase named in endpoint) (Homo sapiens, UniProt Q00526); details: 10 µM; read-out: Activity (%), CDK3/cyclinE(h)
Sequence of panel of human kinases (kinase named in endpoint) (Homo sapiens, UniProt Q00526) (Q00526 whole entry): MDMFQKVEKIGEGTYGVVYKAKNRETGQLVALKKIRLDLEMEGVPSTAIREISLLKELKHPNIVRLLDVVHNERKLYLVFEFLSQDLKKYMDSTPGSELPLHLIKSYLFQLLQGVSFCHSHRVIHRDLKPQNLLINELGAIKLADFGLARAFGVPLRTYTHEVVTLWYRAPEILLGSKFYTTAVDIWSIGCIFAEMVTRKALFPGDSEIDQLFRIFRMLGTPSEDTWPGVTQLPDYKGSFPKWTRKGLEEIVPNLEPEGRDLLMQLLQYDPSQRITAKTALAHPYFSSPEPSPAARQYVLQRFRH
Description: as §1

[5] = biological target: panel of human kinases (kinase named in endpoint) (Homo sapiens, UniProt Q9H3Y6); details: 10 µM; read-out: Activity (%), SRMS(h)
Sequence of panel of human kinases (kinase named in endpoint) (Homo sapiens, UniProt Q9H3Y6) (Q9H3Y6 whole entry): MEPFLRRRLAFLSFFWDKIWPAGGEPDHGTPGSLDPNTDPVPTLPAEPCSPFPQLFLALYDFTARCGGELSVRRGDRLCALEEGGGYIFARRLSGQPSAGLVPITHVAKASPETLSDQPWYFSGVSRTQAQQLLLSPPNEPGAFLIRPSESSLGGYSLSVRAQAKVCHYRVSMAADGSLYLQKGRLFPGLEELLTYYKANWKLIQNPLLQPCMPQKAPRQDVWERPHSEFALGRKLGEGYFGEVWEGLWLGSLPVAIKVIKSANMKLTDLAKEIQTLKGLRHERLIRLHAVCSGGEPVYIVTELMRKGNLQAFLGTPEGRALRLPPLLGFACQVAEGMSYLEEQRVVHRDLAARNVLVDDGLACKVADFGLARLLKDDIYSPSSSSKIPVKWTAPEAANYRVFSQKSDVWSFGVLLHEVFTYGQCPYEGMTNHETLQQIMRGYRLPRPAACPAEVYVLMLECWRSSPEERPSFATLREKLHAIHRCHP
Description: as §1

[6] = biological target: panel of human kinases (kinase named in endpoint) (Homo sapiens, UniProt Q8WXR4); details: 10 µM; read-out: Activity (%), MYO3B(h)
Description: as §1

[7] = biological target: panel of human kinases (kinase named in endpoint) (Homo sapiens, UniProt Q6PHR2); details: 10 µM; read-out: Activity (%), ULK3(h)
Description: as §1

[8] = biological target: panel of human kinases (kinase named in endpoint) (Homo sapiens, UniProt P07949, V804L); details: 10 µM; read-out: Activity (%), Ret (V804L)(h)
Sequence of panel of human kinases (kinase named in endpoint) (Homo sapiens, UniProt P07949, V804L) (P07949 29-1114 V804L): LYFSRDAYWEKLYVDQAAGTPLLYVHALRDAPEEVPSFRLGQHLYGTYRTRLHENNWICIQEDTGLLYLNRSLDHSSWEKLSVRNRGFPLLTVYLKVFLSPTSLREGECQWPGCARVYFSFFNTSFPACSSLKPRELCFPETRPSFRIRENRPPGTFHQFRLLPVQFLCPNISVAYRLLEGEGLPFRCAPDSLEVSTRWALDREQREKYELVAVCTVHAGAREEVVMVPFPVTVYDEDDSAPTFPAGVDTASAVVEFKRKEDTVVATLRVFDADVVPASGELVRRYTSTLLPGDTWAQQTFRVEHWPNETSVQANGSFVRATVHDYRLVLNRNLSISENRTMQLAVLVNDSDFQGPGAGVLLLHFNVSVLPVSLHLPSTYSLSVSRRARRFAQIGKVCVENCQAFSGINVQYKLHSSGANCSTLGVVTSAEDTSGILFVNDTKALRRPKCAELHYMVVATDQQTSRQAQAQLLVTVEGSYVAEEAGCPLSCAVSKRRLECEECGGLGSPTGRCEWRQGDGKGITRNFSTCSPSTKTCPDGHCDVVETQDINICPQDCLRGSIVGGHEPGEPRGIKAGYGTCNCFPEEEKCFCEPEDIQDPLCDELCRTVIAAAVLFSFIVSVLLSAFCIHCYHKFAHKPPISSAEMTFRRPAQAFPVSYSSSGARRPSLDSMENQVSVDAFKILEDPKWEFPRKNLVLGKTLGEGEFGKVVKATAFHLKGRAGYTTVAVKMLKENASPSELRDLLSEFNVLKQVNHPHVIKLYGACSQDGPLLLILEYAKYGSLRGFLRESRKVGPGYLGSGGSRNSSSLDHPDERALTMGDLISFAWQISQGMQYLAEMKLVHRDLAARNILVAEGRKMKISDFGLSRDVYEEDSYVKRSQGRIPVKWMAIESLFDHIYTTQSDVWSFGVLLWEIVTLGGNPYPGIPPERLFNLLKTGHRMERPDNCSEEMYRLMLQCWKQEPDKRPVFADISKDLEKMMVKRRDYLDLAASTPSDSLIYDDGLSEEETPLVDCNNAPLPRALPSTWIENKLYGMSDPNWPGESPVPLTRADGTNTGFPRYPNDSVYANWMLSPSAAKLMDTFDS
Description: as §1

[9] = biological target: panel of human kinases (kinase named in endpoint) (Homo sapiens, UniProt P11362); details: 10 µM; read-out: Activity (%), FGFR1(h)
Sequence of panel of human kinases (kinase named in endpoint) (Homo sapiens, UniProt P11362) (P11362 22-822): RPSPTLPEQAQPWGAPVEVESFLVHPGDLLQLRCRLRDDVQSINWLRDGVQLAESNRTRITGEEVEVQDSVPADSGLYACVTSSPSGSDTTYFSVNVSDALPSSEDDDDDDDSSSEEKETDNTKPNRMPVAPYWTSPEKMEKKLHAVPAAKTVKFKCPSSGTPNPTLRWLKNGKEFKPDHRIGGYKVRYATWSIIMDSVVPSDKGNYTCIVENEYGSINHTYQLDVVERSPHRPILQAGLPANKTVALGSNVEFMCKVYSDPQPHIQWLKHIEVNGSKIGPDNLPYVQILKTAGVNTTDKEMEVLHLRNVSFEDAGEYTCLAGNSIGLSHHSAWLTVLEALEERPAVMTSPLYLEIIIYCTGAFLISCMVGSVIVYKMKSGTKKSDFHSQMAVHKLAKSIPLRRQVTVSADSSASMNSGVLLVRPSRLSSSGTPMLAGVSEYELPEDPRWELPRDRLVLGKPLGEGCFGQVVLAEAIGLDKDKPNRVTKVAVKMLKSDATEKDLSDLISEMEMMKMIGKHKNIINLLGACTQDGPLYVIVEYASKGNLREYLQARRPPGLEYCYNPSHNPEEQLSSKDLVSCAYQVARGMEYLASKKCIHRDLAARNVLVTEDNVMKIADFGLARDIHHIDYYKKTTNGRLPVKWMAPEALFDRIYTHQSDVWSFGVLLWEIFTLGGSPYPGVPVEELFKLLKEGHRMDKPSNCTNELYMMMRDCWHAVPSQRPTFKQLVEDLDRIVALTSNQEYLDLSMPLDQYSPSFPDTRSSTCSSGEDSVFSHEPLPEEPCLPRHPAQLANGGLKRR
Description: as §1

[10] = biological target: panel of human kinases (kinase named in endpoint) (Homo sapiens, UniProt P53779); details: 10 µM; read-out: Activity (%), JNK3(h)
Description: as §1

[11] = biological target: panel of human kinases (kinase named in endpoint) (Homo sapiens, UniProt O95819); details: 10 µM; read-out: Activity (%), MAP4K4(h)
Description: as §1

[12] = biological target: panel of human kinases (kinase named in endpoint) (Homo sapiens, UniProt O60331); details: 10 µM; read-out: Activity (%), PIP5K1g(h)
Sequence of panel of human kinases (kinase named in endpoint) (Homo sapiens, UniProt O60331) (O60331 whole entry): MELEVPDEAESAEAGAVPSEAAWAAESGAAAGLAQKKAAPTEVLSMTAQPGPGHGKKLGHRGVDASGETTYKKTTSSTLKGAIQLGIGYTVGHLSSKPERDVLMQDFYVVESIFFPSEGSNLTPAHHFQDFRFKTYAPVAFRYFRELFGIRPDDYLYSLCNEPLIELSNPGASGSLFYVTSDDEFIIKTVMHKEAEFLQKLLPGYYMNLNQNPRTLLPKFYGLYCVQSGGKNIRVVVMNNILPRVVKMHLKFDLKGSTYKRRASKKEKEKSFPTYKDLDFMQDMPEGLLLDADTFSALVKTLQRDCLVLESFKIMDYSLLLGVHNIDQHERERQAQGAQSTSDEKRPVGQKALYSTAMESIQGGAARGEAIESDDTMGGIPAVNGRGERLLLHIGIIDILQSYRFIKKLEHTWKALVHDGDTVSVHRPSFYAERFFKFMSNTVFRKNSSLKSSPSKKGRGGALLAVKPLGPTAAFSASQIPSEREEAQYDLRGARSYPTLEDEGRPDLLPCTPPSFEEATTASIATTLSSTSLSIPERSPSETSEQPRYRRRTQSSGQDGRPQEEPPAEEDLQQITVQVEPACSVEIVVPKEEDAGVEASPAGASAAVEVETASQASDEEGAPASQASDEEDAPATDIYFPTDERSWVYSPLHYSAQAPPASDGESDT
Description: as §1

[13] = biological target: panel of human kinases (kinase named in endpoint) (Homo sapiens, UniProt P42336, H1047R); details: 10 µM; read-out: Activity (%), PI3 Kinase (p110a(H1047R)/p85a)(h)
Description: as §1

[14] = biological target: panel of human kinases (kinase named in endpoint) (Homo sapiens, UniProt P16234, D842V); details: 10 µM; read-out: Activity (%), PDGFRα(D842V)(h)
Description: as §1

[15] = system: panel of human kinases (kinase named in endpoint); details: 10 µM
Description: as §1

[16] = biological target: panel of human kinases (kinase named in endpoint) (Homo sapiens, UniProt P23458); details: 10 µM; read-out: Activity (%), JAK1(h)
Sequence of panel of human kinases (kinase named in endpoint) (Homo sapiens, UniProt P23458) (P23458 whole entry): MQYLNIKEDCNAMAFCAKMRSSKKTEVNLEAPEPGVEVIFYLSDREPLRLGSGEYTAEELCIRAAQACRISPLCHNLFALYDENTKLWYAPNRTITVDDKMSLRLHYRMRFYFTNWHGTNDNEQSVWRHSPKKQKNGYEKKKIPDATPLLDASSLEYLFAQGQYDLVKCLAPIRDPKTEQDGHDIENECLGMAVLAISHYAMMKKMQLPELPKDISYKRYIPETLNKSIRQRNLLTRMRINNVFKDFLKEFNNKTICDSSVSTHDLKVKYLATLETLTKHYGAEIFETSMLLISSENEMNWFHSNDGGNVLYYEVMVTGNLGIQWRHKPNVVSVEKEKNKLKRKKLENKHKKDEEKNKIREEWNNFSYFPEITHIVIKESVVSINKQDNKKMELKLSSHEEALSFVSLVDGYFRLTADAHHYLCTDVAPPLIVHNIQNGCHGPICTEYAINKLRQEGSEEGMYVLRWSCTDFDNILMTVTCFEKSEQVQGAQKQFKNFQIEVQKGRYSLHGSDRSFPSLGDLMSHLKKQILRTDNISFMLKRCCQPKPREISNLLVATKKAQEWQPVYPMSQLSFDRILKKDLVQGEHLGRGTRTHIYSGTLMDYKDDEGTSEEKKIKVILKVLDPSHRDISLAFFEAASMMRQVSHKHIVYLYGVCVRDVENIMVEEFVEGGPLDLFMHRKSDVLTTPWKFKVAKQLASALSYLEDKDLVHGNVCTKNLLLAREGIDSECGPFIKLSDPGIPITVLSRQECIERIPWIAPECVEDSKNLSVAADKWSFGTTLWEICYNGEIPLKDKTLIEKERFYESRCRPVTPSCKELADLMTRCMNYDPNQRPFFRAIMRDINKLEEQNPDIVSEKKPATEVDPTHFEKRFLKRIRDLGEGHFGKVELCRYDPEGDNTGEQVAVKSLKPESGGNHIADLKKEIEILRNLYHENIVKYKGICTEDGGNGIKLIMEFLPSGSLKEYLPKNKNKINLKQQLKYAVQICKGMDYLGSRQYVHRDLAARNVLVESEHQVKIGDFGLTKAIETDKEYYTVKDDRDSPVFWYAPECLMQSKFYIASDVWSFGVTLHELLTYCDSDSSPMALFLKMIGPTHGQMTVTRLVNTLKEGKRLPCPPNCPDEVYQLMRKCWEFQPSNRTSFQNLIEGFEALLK
Description: as §1

[17] = biological target: panel of human kinases (kinase named in endpoint) (Homo sapiens, UniProt O15530); details: 10 µM; read-out: Activity (%), PDK1(h)
Description: as §1

[18] = biological target: panel of human kinases (kinase named in endpoint) (Homo sapiens, UniProt Q86Y07); details: 10 µM; read-out: Activity (%), VRK2(h)
Description: as §1

[19] = biological target: panel of human kinases (kinase named in endpoint) (Homo sapiens, UniProt Q9UL54); details: 10 µM; read-out: Activity (%), TAO2(h)
Description: as §1

[20] = biological target: panel of human kinases (kinase named in endpoint) (Homo sapiens, UniProt P78527); details: 10 µM; read-out: Activity (%), DNA-PK(h)
Description: as §1

[21] = biological target: panel of human kinases (kinase named in endpoint) (Homo sapiens, UniProt Q6P2M8); details: 10 µM; read-out: Activity (%), CaMKIß(h)
Description: as §1

[22] = biological target: panel of human kinases (kinase named in endpoint) (Homo sapiens, UniProt Q9UQB9); details: 10 µM; read-out: Activity (%), Aurora-C(h)
Description: as §1

[23] = biological target: panel of human kinases (kinase named in endpoint) (Homo sapiens, UniProt P45984); details: 10 µM; read-out: Activity (%), JNK2α2(h)
Description: as §1

[24] = biological target: panel of human kinases (kinase named in endpoint) (Homo sapiens, UniProt P10721); details: 10 µM; read-out: Activity (%), cKit(h)
Description: as §1

[25] = biological target: panel of human kinases (kinase named in endpoint) (Homo sapiens, UniProt Q96J92); details: 10 µM; read-out: Activity (%), WNK4(h)
Description: as §1

Structure (SMILES): CC(C)C(=O)Nc1nc2cc(-c3ccc4c(c3)c(C(=O)NC(C)c3ccccc3)cn4C)ccn2n1 (centres unmarked) [RI-962]
- activity at 10 µM [1]: 126%
- activity at 10 µM [2]: 103%
- activity at 10 µM [3]: 95%
- activity at 10 µM [4]: 119%
- activity at 10 µM [5]: 101%
- activity at 10 µM [6]: 76%
- activity at 10 µM [7]: 68%
- activity at 10 µM [8]: 103%
- activity at 10 µM [9]: 81%
- activity at 10 µM [10]: 56%
- activity at 10 µM [11]: 88%
- activity at 10 µM [12]: 98%
- activity at 10 µM [13]: 99%
- activity at 10 µM [14]: 104%
- Activity (%), ACTR2(h) [15]: 81%
- Activity (%), CK1(y) [15]: 100%
- Activity (%), MAPK1(h) [15]: 94%
- Activity (%), PKCβII(h) [15]: 87%
- Activity (%), PKG1β(h) [15]: 98%
- activity at 10 µM [16]: 85%
- activity at 10 µM [17]: 101%
- activity at 10 µM [18]: 89%
- activity at 10 µM [19]: 92%
- activity at 10 µM [20]: 100%
- activity at 10 µM [21]: 100%
- activity at 10 µM [22]: 95%
- activity at 10 µM [23]: 71%
- activity at 10 µM [24]: 105%
- activity at 10 µM [25]: 80%
